According to ChEMBL document CHEMBL1770065, “Discovery of a clinical candidate from the structurally unique dioxa-bicyclo[3.2.1]octane class of sodium-dependent glucose cotransporter 2 inhibitors” (J Med Chem, 2011):

Key:
[1] = biological target: T1, Solute carrier family 22 member 2 (Rattus norvegicus, UniProt Q9R0W2); experiment: Inhibition of rat OCT2 expressed in HEK293 cells; assay type: cell-based
T1 sequence (Q9R0W2 whole entry): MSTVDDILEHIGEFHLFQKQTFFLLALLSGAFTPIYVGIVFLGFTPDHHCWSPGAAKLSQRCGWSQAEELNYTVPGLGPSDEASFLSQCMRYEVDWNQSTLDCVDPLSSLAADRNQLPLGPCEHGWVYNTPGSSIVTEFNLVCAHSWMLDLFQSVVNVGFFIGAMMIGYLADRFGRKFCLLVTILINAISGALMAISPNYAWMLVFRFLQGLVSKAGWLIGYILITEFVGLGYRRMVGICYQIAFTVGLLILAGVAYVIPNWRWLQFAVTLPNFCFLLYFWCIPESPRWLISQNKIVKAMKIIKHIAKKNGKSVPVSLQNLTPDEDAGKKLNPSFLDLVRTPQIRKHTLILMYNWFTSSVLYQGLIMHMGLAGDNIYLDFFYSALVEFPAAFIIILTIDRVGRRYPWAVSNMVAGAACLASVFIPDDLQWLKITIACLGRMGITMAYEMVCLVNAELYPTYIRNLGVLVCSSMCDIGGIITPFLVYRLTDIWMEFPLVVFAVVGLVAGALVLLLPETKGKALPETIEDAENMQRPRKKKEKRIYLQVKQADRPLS

[2] = biological target: T2, Solute carrier family 22 member 3 (Rattus norvegicus, UniProt O88446); experiment: Inhibition of rat OCT3 expressed in HEK293 cells; assay type: cell-based
T2 sequence (O88446 whole entry): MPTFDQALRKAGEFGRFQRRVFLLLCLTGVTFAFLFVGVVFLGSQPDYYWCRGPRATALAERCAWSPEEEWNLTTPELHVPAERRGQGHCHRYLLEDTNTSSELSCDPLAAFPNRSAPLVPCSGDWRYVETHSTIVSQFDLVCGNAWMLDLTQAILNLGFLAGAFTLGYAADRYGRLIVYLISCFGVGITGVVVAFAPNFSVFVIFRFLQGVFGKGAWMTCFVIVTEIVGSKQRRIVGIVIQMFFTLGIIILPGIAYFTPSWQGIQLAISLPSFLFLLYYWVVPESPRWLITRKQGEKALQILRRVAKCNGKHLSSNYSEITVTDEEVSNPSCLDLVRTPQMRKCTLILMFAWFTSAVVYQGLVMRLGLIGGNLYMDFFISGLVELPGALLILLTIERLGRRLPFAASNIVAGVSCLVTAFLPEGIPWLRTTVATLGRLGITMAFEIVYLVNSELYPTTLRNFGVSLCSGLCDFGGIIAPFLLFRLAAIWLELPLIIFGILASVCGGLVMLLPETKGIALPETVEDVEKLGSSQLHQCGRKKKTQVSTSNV

Rattus norvegicus [3] = experiment: Antidiabetic activity in po dosed Sprague-Dawley rat assessed as increase of urinary glucose excretion after 24 hrs; assay type: functional, organism-based; conditions: Urine
Rattus norvegicus [4] = experiment: fAUC (0 to 24 hrs) in Sprague-Dawley rat at 30 mg/kg, po after 24 hrs; assay type: ADME, organism-based; parameters: dose 30 mg/kg, route oral; conditions: in vivo
[5] = biological target: T3, Sodium/glucose cotransporter 2 (Rattus norvegicus, UniProt P53792); experiment: Inhibition of rat SGLT2
T3 sequence (P53792 whole entry): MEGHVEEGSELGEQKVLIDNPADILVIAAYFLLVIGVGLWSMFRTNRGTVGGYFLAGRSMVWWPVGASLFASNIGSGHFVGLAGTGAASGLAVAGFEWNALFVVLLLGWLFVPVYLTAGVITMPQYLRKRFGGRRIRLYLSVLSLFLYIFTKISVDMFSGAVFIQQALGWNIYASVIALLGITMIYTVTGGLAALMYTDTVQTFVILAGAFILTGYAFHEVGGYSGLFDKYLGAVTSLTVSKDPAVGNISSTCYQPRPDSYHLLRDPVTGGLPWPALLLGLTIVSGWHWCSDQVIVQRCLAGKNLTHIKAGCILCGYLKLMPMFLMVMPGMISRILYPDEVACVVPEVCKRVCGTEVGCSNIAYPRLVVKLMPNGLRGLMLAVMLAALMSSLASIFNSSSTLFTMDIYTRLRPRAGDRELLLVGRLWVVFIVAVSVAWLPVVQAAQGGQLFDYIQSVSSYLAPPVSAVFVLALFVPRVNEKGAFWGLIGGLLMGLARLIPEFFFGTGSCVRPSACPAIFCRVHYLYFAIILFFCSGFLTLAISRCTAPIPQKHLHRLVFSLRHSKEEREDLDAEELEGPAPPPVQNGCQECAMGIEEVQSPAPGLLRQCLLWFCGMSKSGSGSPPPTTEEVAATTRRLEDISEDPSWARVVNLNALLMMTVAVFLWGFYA

[6] = Lipophilicity, log D of the compound; assay type: physicochemical; conditions: octanol/water
[7] = biological target: T4, Sodium/glucose cotransporter 2 (Homo sapiens, UniProt P31639); experiment: Inhibition of human SGLT2 expressed in CHO cells assessed as inhibition of methyl alpha-D-glucopyranoside uptake after 1 hr; assay type: cell-based
T4 sequence (P31639 whole entry): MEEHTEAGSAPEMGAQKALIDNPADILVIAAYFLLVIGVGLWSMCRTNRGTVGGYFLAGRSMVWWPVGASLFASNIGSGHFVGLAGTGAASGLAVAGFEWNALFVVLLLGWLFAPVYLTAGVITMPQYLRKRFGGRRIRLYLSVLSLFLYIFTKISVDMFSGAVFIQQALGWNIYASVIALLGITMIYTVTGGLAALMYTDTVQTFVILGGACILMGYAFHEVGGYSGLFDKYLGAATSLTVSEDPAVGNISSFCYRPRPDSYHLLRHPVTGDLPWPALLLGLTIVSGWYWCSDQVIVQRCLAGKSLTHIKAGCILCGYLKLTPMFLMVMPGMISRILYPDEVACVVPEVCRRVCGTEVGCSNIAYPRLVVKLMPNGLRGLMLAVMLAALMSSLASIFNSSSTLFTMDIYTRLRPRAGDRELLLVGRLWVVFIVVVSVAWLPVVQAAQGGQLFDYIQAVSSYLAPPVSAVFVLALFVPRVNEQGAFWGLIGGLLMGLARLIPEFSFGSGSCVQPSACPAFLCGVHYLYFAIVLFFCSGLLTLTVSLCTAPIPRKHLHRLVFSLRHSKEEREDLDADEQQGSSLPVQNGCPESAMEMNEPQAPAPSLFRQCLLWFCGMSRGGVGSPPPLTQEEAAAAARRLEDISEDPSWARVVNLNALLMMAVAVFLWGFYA

[8] = Apparent intrinsic clearance in human hepatocytes assessed per million of cells; assay type: ADME, cell-based, Liver, Hepatocyte

Compound: CCOc1ccc(Cc2cc([C@]34OC[C@](CO)(O3)[C@@H](O)[C@H](O)[C@H]4O)ccc2Cl)cc1 [ERTUGLIFLOZIN]
- inhibition (INH) [1]: Not Active
- inhibition (INH) [2]: Not Active
- Activity (Rattus norvegicus [3]): Dose-dependent effect
- fAUC (Rattus norvegicus [4]): 4280 ng·h/mL
- IC50 [5]: 1.15 nM
- logD [6]: 3.6
- IC50 [7]: 0.877 nM
- hepatocyte CLint [8]: 4.5 µL/min/1e6 cells
